# Data as given in ChEMBL document CHEMBL3132840 (Medchemcomm, 2014).
# pIC50: −log10 of the molar value. The source made the active and inactive calls. The rule behind the calls is not given here.
# Legend:
# Cholinesterase = Cholinesterase (Equus caballus, UniProt P81908)
# [1] = molecular target: T1, Amine oxidase [flavin-containing] A (Homo sapiens, UniProt P21397)
# T1 sequence (P21397 whole entry): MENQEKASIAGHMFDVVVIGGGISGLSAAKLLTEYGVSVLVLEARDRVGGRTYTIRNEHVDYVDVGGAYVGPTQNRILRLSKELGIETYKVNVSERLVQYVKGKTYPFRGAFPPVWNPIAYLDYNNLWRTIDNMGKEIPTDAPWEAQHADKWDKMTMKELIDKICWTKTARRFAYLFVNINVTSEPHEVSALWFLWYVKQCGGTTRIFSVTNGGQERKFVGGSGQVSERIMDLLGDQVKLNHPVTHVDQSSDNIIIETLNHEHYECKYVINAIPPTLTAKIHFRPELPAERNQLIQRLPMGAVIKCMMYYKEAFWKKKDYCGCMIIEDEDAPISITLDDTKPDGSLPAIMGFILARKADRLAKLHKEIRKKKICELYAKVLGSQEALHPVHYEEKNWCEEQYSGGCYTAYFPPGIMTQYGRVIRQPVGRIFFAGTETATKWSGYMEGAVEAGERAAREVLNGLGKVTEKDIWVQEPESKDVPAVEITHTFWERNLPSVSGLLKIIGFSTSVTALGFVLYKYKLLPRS
# Homo sapiens = species: Homo sapiens; assay: Selectivity index, ratio of IC50 for human MAO-B to IC50 for human MAO-A
# [2] = molecular target: T2, Amine oxidase [flavin-containing] B (Homo sapiens, UniProt P27338)
# T2 sequence (P27338 whole entry): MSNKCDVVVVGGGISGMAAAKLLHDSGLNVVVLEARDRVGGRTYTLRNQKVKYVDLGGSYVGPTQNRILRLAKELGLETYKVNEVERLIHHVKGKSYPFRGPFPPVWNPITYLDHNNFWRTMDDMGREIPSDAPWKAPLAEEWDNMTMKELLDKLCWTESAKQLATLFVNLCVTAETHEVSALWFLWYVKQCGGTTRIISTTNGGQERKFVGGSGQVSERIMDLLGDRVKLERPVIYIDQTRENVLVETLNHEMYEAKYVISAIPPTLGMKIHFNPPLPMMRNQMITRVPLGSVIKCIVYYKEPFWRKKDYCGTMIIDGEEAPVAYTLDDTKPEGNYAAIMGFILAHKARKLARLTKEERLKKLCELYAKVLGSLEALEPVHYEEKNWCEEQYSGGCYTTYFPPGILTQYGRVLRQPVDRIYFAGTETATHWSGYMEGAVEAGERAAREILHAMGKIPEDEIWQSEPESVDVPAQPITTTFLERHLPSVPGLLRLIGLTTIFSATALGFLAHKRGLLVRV
# Acetylcholinesterase = Acetylcholinesterase (Electrophorus electricus, UniProt O42275); assay: Inhibition of electric eel AChE using acetylthiocholine iodide as substrate incubated for 6 mins prior to substrate addition measured after 60 to 180 secs by Ellman's method
# [3] = molecular target: Acetylcholinesterase (Electrophorus electricus) (UniProt O42275); assay: Mixed-type inhibition of electric eel AChE using acetylthiocholine iodide as substrate incubated for 15 mins prior to substrate addition by Lineweaver-Burk plot analysis
# [4] = Cytotoxicity against human SH-SY5Y cells assessed as cell viability at 25 uM after 24 hrs by MTT assay; assay type: cell-based; conditions: read-out: Activity
# [5] = Cytotoxicity against human SH-SY5Y cells assessed as cell viability at 50 uM after 24 hrs by MTT assay; assay type: cell-based; conditions: read-out: Activity
# [6] = Cytotoxicity against human SH-SY5Y cells assessed as cell viability at 10 uM after 24 hrs by MTT assay; assay type: cell-based; conditions: read-out: Activity
# [7] = Cytotoxicity against human SH-SY5Y cells assessed as cell viability at 5 uM after 24 hrs by MTT assay; assay type: cell-based; conditions: read-out: Activity
# [8] = Cytotoxicity against human SH-SY5Y cells assessed as cell viability at 1 uM after 24 hrs by MTT assay; assay type: cell-based; conditions: read-out: Activity
# Sequence of Cholinesterase (P81908 whole entry): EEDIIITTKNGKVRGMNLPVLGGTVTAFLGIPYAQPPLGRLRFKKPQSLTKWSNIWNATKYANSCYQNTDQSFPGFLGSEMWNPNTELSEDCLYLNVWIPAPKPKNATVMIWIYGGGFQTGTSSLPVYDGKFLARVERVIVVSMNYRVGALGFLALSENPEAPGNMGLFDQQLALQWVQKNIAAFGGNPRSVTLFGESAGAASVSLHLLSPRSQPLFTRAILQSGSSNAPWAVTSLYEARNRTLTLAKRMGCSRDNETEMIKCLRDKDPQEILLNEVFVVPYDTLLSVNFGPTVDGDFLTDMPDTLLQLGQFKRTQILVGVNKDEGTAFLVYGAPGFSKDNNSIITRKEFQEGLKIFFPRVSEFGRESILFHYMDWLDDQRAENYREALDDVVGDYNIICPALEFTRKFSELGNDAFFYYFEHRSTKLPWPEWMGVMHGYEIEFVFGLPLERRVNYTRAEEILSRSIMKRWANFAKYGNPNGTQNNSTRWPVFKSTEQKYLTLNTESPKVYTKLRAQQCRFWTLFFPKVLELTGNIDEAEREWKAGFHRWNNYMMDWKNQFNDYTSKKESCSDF
# Sequence of Acetylcholinesterase (O42275 whole entry): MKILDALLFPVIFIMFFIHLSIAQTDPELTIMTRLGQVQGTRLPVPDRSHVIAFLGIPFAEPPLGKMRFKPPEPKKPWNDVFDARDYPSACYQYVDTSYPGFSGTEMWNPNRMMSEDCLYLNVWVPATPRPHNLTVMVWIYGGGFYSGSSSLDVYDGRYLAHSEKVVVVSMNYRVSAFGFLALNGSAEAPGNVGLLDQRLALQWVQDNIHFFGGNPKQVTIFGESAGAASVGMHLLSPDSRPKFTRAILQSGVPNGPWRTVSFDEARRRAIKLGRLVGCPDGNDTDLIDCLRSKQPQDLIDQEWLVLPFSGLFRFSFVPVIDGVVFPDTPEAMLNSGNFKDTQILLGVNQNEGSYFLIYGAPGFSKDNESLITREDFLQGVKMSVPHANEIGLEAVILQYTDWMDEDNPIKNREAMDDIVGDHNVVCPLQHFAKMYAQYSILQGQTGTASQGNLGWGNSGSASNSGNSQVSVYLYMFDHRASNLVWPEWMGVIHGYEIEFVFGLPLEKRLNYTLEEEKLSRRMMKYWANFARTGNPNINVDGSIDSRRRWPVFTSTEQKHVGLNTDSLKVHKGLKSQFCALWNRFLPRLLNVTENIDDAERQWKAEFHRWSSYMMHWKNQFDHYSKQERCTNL
# Sequence of Acetylcholinesterase (Electrophorus electricus) (O42275 24-633 limits assumed): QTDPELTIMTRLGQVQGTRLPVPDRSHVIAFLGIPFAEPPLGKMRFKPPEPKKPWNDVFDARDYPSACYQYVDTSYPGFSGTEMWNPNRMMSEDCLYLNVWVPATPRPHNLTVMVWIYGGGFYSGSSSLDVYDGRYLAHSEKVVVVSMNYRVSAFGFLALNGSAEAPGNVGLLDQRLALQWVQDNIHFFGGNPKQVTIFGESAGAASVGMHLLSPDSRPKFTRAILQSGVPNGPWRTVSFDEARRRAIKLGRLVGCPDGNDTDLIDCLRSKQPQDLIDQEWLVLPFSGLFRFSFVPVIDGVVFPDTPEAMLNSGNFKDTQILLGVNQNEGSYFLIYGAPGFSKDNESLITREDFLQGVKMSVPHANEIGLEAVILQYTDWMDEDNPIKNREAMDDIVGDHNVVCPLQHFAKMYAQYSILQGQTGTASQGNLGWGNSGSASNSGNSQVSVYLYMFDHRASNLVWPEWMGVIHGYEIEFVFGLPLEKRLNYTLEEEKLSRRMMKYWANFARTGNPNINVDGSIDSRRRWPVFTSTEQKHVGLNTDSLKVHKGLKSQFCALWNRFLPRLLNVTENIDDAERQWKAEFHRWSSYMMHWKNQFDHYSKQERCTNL
Structure (SMILES),pIC50 (Cholinesterase),pIC50 [1],Ratio IC50 (Homo sapiens),pIC50 [2],pIC50 (Acetylcholinesterase),inhibition [3],"viability at 24 h, 25 µM [4] [%]","viability at 24 h, 50 µM [5] [%]","viability at 24 h, 10 µM [6] [%]","viability at 24 h, 5 µM [7] [%]","viability at 24 h, 1 µM [8] [%]"
COc1cc(/C=C/c2ccc(OCCN(C)Cc3ccccc3)cc2)cc(OC)c1,4.05,< 4.00,< 0.89,4.05,4.10,,,,,,
CCN(CCCCCCOc1ccc(/C=C/c2cc(OC)cc(OC)c2)cc1)Cc1ccccc1F,4.28,< 4.00,,< 4.00,4.06,,,,,,
COc1cc(/C=C/c2ccc(OCCCN(C)Cc3ccccc3)cc2)cc(OC)c1,4.11,< 4.00,< 0.5,5.30,4.24,,,,,,
COc1cc(/C=C/c2ccc(OCCCCCCN(C)C)cc2)cc(OC)c1,4.99,4.43,0.2,5.12,5.09,,,,,,
CCN(CCCCCCOc1ccc(/C=C/c2cc(OC)cc(OC)c2)cc1)Cc1ccccc1,5.44,4.05,0.65,4.23,5.81,Active,,,,,
CCN(CCCCCCOc1ccc(/C=C/c2cc(OC)cc(OC)c2)cc1)Cc1ccccc1OC,5.64,< 4.00,,< 4.00,4.26,,,,,,
COc1cc(/C=C/c2ccc(OCCCCCCCCN(C)Cc3ccccc3)cc2)cc(OC)c1,4.33,< 4.00,,< 4.00,4.58,,,,,,
CCCN(CCC)CCCCCCOc1ccc(/C=C/c2cc(OC)cc(OC)c2)cc1,5.13,4.05,1.03,4.03,4.92,,,,,,
CCN(CC)CCCCCCOc1ccc(/C=C/c2cc(OC)cc(OC)c2)cc1,4.88,4.48,0.31,5.00,5.38,,,,,,
COc1cc(/C=C/c2ccc(OCCCCCCN3CCCCC3C)cc2)cc(OC)c1 (stereo unspecified),5.00,4.61,0.67,4.79,5.39,,,,,,
COc1cc(/C=C/c2ccc(OCCCCCCN3CCCCC3)cc2)cc(OC)c1,4.97,4.53,0.48,4.85,5.30,,,,,,
COc1cc(/C=C/c2ccc(OCCCCCCN3CCOCC3)cc2)cc(OC)c1,4.46,< 4.00,,< 4.00,4.61,,,,,,
CCN(CCCCCCOc1ccc(/C=C/c2cc(OC)cc(OC)c2)cc1)Cc1cccc(OC)c1,< 4.00,< 4.00,,< 4.00,4.15,,,,,,
COc1cc(/C=C/c2ccc(OCCCCCCCN(C)Cc3ccccc3)cc2)cc(OC)c1,4.38,< 4.00,< 0.64,4.20,4.63,,,,,,
COc1cc(/C=C/c2ccc(OCCCCCN(C)Cc3ccccc3)cc2)cc(OC)c1,4.36,4.01,0.16,4.79,4.41,,,,,,
CCN(CCCCCCOc1ccc(/C=C/c2cc(OC)cc(OC)c2)cc1)Cc1ccc(OC)cc1,< 4.00,< 4.00,,< 4.00,4.05,,,,,,
COc1cc(/C=C/c2ccc(OCCCCCCN3CCCC3)cc2)cc(OC)c1,5.09,4.75,0.7,4.91,5.18,,93.2,90.8,94.4,95.6,97
CCN(CCCCCCOc1ccc(/C=C/c2cc(OC)cc(OC)c2)cc1)Cc1ccc(F)cc1,4.07,< 4.00,,< 4.00,4.03,,,,,,
CCN(CCCCCCOc1ccc(/C=C/c2cc(OC)cc(OC)c2)cc1)Cc1cccc(F)c1,4.28,< 4.00,< 0.97,4.01,4.11,,,,,,
COc1cc(/C=C/c2ccc(OCCCCCCN(C)Cc3ccccc3)cc2)cc(OC)c1,4.58,4.04,0.45,4.39,4.93,,,,,,
Oc1ccc(/C=C/c2cc(O)cc(O)c2)cc1 [RESVERATROL],3.12,,,,3.78,,,,,,
COc1cc(/C=C/c2ccc(OCCCCN(C)Cc3ccccc3)cc2)cc(OC)c1,4.39,< 4.00,< 0.35,4.46,4.22,,,,,,
COc1cc(/C=C/c2ccc(OCCCCCCN3CCC(O)CC3)cc2)cc(OC)c1,4.64,< 4.00,< 0.14,4.84,4.76,,,,,,
